Laboratory results from patent US6372747B1, “Farnesyl protein transferase inhibitors” (Schering Corporation, priority 1998, dated 2002).

Test system: not given
Experiment: not given
Conditions: not given

melting point [°C] | SMILES
164 to 167 | NC(=O)[C@H](Cc1cn(C(=O)NC2CCCCC2)cn1)NC(=O)[C@H]1CN(C2c3ccc(Cl)cc3CCc3cc(Br)cnc32)CCN1C(=O)NC1CCCCC1 (some centres unmarked) [Example 24]
173.8 | O=C(NCCc1cnc(C(F)(F)F)[nH]1)[C@H]1CN(C2c3ccc(Cl)cc3CCc3cc(Br)cnc32)CCN1C(=O)NC1CCCCC1 (some centres unmarked) [Example 294]
91 to 107 | Cc1cn(CCCN(Cc2ccccc2)C(=O)[C@H]2CN(C3c4ccccc4CCc4cc(Cl)cnc43)CCN2C(=O)OC2CCCCC2)cn1 (some centres unmarked) [Example 395]
93.1 to 99.8 | Cn1cncc1CCN(Cc1ccccc1)C(=O)[C@H]1CN(C2c3ccc(Cl)cc3CCc3cccnc32)CCN1C(=O)OC(C)(C)C (single isomer, unassigned) [Example 62]
115 to 117 | CC(C)(CCNC(=O)[C@H]1CN([C@H]2c3ccc(Cl)cc3CCc3cc(Br)cnc32)CCN1C(=O)Cc1cc[n+]([O-])cc1)n1ccnc1 [Example 6]
148.1 to 150.4 | Cn1cncc1CCNC(=O)[C@H]1CN(C2c3ccc(Cl)cc3CCc3cc(Br)cnc32)CCN1C(=O)CC1CCN(C(N)=O)CC1 (single isomer, unassigned) [Example 39]
100 to 114 | Cn1cncc1CCN(CC1CC1)C(=O)[C@H]1CN([C@H]2c3ccc(Cl)cc3CCc3cccnc32)CCN1C(=O)OC(C)(C)C [Example 306]
140.1 to 149.4 | Cn1cncc1CCNC(=O)[C@H]1CN(C2c3ccc(Cl)cc3CCc3cc(Br)cnc32)CCN1C(=O)Nc1ccc(F)cc1 (single isomer, unassigned) [Example 27]
138 to 140 | O=C(NCCC(c1ccc(Cl)cc1)n1ccnc1)[C@H]1CN(C2c3ccc(Cl)cc3CCc3cc(Br)cnc32)CCN1C(=O)NC1CCCCC1 (some centres unmarked) [Example 5]
103.7 to 107.5 | CCn1cncc1CCN(CC1CC1)C(=O)[C@H]1CN(C2c3ccc(Cl)cc3CCc3cc(Br)cnc32)CCN1C(=O)OC(C)(C)C (some centres unmarked) [Example 304]
89.1 to 96.5 | CCn1cncc1CCN(CC1CC1)C(=O)[C@H]1CN([C@H]2c3ccc(Cl)cc3CCc3cccnc32)CCN1C(=O)OC(C)(C)C [Example 307]
63.8 to 67.4 | CCCN(CCCn1ccnc1)C(=O)[C@H]1CN(C2c3ccc(Cl)cc3CCc3cc(Br)cnc32)CCN1C(=O)NC1CCCCC1 (some centres unmarked) [Example 112]
79.3 | CCN(CCCn1ccnc1)C(=O)[C@H]1CN(C2c3ccc(Cl)cc3CCc3cc(Br)cnc32)CCN1C(=O)NC1CCCCC1 (some centres unmarked) [Example 111]
144.9 to 148.7 | Cn1cncc1CCNC(=O)[C@H]1CN(C2c3ccc(Cl)cc3CCc3cc(Br)cnc32)CCN1C(=O)c1ccc(F)cc1 (single isomer, unassigned) [Example 34]
139 to 142 | CN(C)C(=O)N1CCN(C2c3ccc(Cl)cc3CCc3cc(Br)cnc32)CC1C(=O)NCCC(C)(C)n1ccnc1 (centres unmarked) [Example 18]
116 to 123 | CCCn1cncc1CCNC(=O)C1CN(C2c3ccc(Cl)cc3CCc3cc(Br)cnc32)CCN1C(=O)OC(C)(C)C (centres unmarked) [Example 41]
136.1 to 139.5 | Cn1cncc1CCNC(=O)[C@H]1CN(C2c3ccc(Cl)cc3CCc3cc(Br)cnc32)CCN1C(=O)CC1CCNCC1 (single isomer, unassigned) [Example 38]
136.4 to 138.6 | Cn1cncc1CCNC(=O)[C@H]1CN(C2c3ccc(Cl)cc3CCc3cc(Br)cnc32)CCN1C(=O)N1CCOCC1 (single isomer, unassigned) [Example 31]
136 to 139 | CC(C)(C)NC(=O)N1CCN([C@H]2c3ccc(Cl)cc3CCc3cc(Br)cnc32)C[C@@H]1C(=O)NCCC1(n2ccnc2)CC1 [Example 12]
120.3 to 126.1 | CC(C)OC(=O)N1CCN(C2c3ccc(Cl)cc3CCc3cc(Br)cnc32)C[C@@H]1C(=O)NCCc1cncn1C (single isomer, unassigned) [Example 30]
54 to 58 | CCn1cncc1CCNC(=O)[C@H]1CN(C2c3ccc(Cl)cc3CCc3cc(Br)cnc32)CCN1C(=O)OC(C)(C)C (some centres unmarked) [Example 40]
150 to 153 | CC(C)(CCNC(=O)[C@H]1CN([C@@H]2c3ccc(Cl)cc3CCc3cc(Br)cnc32)CCN1C(=O)CC1CCN(C(N)=O)CC1)n1ccnc1 [Example 9]
141.2 | O=C(NCCCn1ccnc1CO)[C@H]1CN(C2c3ccc(Cl)cc3CCc3cc(Br)cnc32)CCN1C(=O)NC1CCCCC1 (some centres unmarked) [Example 296]
127 to 130 | Cn1cncc1CCN(Cc1ccccc1)C(=O)[C@H]1CN(C2c3ccc(Cl)cc3CCc3cc(Br)cnc32)CCN1C(=O)NC(C)(C)C (single isomer, unassigned) [Example 61]
139 to 145.1 | Cn1cncc1CCNC(=O)[C@H]1CN(C2c3ccc(Cl)cc3CCc3cc(Br)cnc32)CCN1S(C)(=O)=O (single isomer, unassigned) [Example 33]

melting point [°C] | SMILES
120 to 122 | CC(C)Cn1cncc1CCNC(=O)[C@H]1CN(C2c3ccc(Cl)cc3CCc3cc(Br)cnc32)CCN1C(=O)OC(C)(C)C (some centres unmarked) [Example 43]
128.1 to 135.2 | Cn1cncc1CCNC(=O)[C@H]1CN(C2c3ccc(Cl)cc3CCc3cc(Br)cnc32)CCN1C(=O)NC(C)(C)C (single isomer, unassigned) [Example 28]
103 to 106 | CC(C)(CCNC(=O)[C@H]1CN(C2c3ccc(Cl)cc3CCc3cc(Br)cnc32)CCN1C(=O)OCc1ccccc1)n1ccnc1 (some centres unmarked) [Example 3]
107 to 110 | CC(C)(CCNC(=O)[C@H]1CN(C2c3ccc(Cl)cc3CCc3cc(Br)cnc32)CCN1S(C)(=O)=O)n1ccnc1 (mixture of isomers) [Example 15]
118.4 | CN(CCCn1ccnc1)C(=O)[C@H]1CN(C2c3ccc(Cl)cc3CCc3cc(Br)cnc32)CCN1C(=O)NC1CCCCC1 (some centres unmarked) [Example 110]
89.1 to 96.5 | CCn1cncc1CCN(CC1CC1)C(=O)[C@H]1CN([C@@H]2c3ccc(Cl)cc3CCc3cccnc32)CCN1C(=O)OC(C)(C)C [Example 308]
182.1 to 219.4 | O=C(NCCc1cnc(O)[nH]1)[C@H]1CN(C2c3ccc(Cl)cc3CCc3cc(Br)cnc32)CCN1C(=O)NC1CCCCC1 (some centres unmarked) [Example 297]
133 to 139 | CC(C)NC(=O)N1CCN(C2c3ccc(Cl)cc3CCc3cc(Br)cnc32)CC1C(=O)NCCC1(n2ccnc2)CC1 (centres unmarked) [Example 14]
106 to 110 | CC(C)(C)NC(=O)N1CCN([C@@H]2c3ccc(Cl)cc3CCc3cc(Br)cnc32)C[C@@H]1C(=O)NCCC1(n2ccnc2)CC1 [Example 13]
127 to 132 | O=C(NCCn1nnc2ccccc21)[C@H]1CN(C2c3ccc(Cl)cc3CCc3cc(Br)cnc32)CCN1C(=O)NC1CCCCC1 (some centres unmarked) [Example 292]
132 to 135 | O=C(NCCn1nc2ccccc2n1)[C@H]1CN(C2c3ccc(Cl)cc3CCc3cc(Br)cnc32)CCN1C(=O)NC1CCCCC1 (some centres unmarked) [Example 291]
150 to 154 | CC(C)(CNC(=O)[C@H]1CN(C2c3ccc(Cl)cc3CCc3cc(Br)cnc32)CCN1C(=O)NC1CCCCC1)c1cnc[nH]1 (some centres unmarked) [Example 21]
130 to 139 | Cn1cncc1CCN(Cc1ccccc1)C(=O)[C@H]1CN(C2c3ccc(Cl)cc3CCc3cc(Br)cnc32)CCN1C(=O)NC1CCCCC1 (single isomer, unassigned) [Example 60]
128.1 to 133.4 | CC(C)NC(=O)N1CCN(C2c3ccc(Cl)cc3CCc3cc(Br)cnc32)C[C@@H]1C(=O)NCCc1cncn1C (single isomer, unassigned) [Example 29]
101 to 103 | CC(C)(C)OC(=O)N1CCN(C2c3ccc(Cl)cc3CCc3cc(Br)cnc32)C[C@@H]1C(=O)NCCc1cncn1CCc1ccccc1 (some centres unmarked) [Example 44]
134.9 to 137.5 | Cn1cncc1CCNC(=O)[C@H]1CN(C2c3ccc(Cl)cc3CCc3cc(Br)cnc32)CCN1C(=O)OC(C)(C)C (single isomer, unassigned) [Example 32]
141.7 to 143.2 | Cn1cncc1CCNC(=O)[C@H]1CN(C2c3ccc(Cl)cc3CCc3cc(Br)cnc32)CCN1C(=O)CC1CCN(C(=O)OC(C)(C)C)CC1 (single isomer, unassigned) [Example 37]
132.5 to 139.7 | Cn1cncc1CCNC(=O)[C@H]1CN(C2c3ccc(Cl)cc3CCc3cc(Br)cnc32)CCN1C(=O)Cc1ccc(F)cc1 (single isomer, unassigned) [Example 35]
133 to 138 | CC(CCNC(=O)[C@H]1CN(C2c3ccc(Cl)cc3CCc3cc(Br)cnc32)CCN1C(=O)NC1CCCCC1)n1ccnc1 (some centres unmarked) [Example 19]
111.8 to 114.5 | Cn1cncc1CCNC(=O)[C@H]1CN(C2c3ccc(Cl)cc3CCc3cc(Br)cnc32)CCN1C(=O)OCc1ccccc1 (some centres unmarked) [Example 26]
139 to 142 | CC(C)(C)NC(=O)N1CCN([C@H]2c3ccc(Cl)cc3CCc3cc(Br)cnc32)C[C@@H]1C(=O)NCCC(C)(C)n1ccnc1 [Example 10]
98 to 101 | CC(C)n1cncc1CCNC(=O)[C@H]1CN(C2c3ccc(Cl)cc3CCc3cc(Br)cnc32)CCN1C(=O)OC(C)(C)C (some centres unmarked) [Example 42]
156 to 158 | O=C(NCC1(c2cnc[nH]2)CC1)[C@H]1CN(C2c3ccc(Cl)cc3CCc3cc(Br)cnc32)CCN1C(=O)NC1CCCCC1 (some centres unmarked) [Example 22]
168.9 to 172.3 | Cn1cncc1CCNC(=O)[C@H]1CN(C2c3ccc(Cl)cc3CCc3cc(Br)cnc32)CCN1C(=O)Cc1cc[n+]([O-])cc1 (single isomer, unassigned) [Example 36]

Test system: Human tumor cells
Experiment: Soft Agar Assay (anchorage-independent growth)
Format: cell-based
Conditions: Homo sapiens, range stated for the group unless single
Protocol: Anchorage-independent growth is a characteristic of tumorigenic cell lines. Human tumor cells can be suspended in growth medium containing 0.3% agarose and an indicated concentration of a farnesyl transferase inhibitor. The solution can be overlayed onto growth medium solidified with 0.6% agarose containing the same concentration of farnesyl transferase inhibitor as the top layer. After the top layer is solidified, plates can be incubated for 10-16 days at 37° C. under 5% CO2 to allow colony outgrowth. After incubation, the colonies can be stained by overlaying the agar with a solution of MTT (3-[4,5-dimethyl-thiazol-2-yl]-2,5-diphenyltetrazolium bromide, Thiazolyl blue) (1 mg/mL in PBS). Colonies can be counted and the IC50's can be determined.

IC50 [nM] | SMILES
2 to 10 | Cc1cncn1CCCN(Cc1ccccc1)C(=O)[C@H]1CN([C@H]2c3ccc(Cl)cc3CCc3cccnc32)CCN1C(=O)OC1CCCCC1 (single isomer, unassigned) [Example 325]
